Experimental data reported in US4212862A, “O,O-Diaryl-1-acyloxy-2,2,2-trichloroethylphosphonates and fungicides based thereon” (priority 1978, dated 1980).
Several values for one entry are separate records, joined by “and”; a condition that tells them apart may be missing. Equal values may be shown once. Read-outs that look alike come from different tables or passages of the source.

Experiments:
[1] = system: rust diseases of cereal crops; conditions: prior art; cited from earlier work
[2] = system: rust diseases of cereal crops; experiment: Activity against rust diseases of cereal crops (general statements); format: in vivo
[3] = system: stalk rust (Puccinia graminis f. tritici); format: in vivo; conditions: for Plant injury / Weight of 1,000 grains: Table 5, Moscow region, spring wheat Krasnozernaja, 3 sprayings
[4] = system: apple scab (Venturia inaequalis); conditions: in vivo
[5] = system: spores of Piricularia oryzae Cav.; format: cell-based
[6] = system: stalk rust (Puccinia graminis f. tritici); format: in vivo; conditions: in vivo
[7] = system: stalk rust of wheat (Puccinia graminis); format: in vivo; conditions: in vivo
white mice = experiment: Acute peroral toxicity for warm-blooded animals (LD50, LD90); format: in vivo; conditions: peroral
Description: (§1) Toxicity (LD50) was evaluated on males and females of white mice with peroral administration of the compounds. A portion of the test compound was mixed with the emulsifier Twin-20 and diluted with distilled water to the required working concentration. Administration of the preparation was effected by means of a metal probe and syringe directly into the stomach of test animals 2-3 hours after feeding. The tests were performed using several doses, 6 animals per each dose. Subsequent observation was effected for two weeks.

[8] = as above; format: in vivo, white mice; conditions: mouse, in vivo, po
Description: as §1

[9] = system: potato phytophthora (Phytophthora infestans); format: in vivo; conditions: 1% aqueous emulsion; 18 °C, 14 days
[10] = seeds after storage of grains for one year
[11] = Table 2, peroral, read-out: LD50 for white mice

SMILES | Percentage of plants injured with rust, 1-st evaluation [6] | Percentage of plants injured with rust, 2-nd evaluation [6] | Weight of 1,000 grains [6] | Yield [6] | Percentage of injury lowered [7] | LD50 at 336 h [8, 11] | further results
CC1=C(C(=O)Nc2ccccc2)S(=O)(=O)CCO1 [Hydroxycarboxine, 1,4-dioxide-2,3-dihydro-6-methyl-5-phenylcarbamoyl-1,4-oxathiine] |  |  |  |  |  |  | activity against rust diseases [1]: efficient in killing rust fungi; efficiency under different agroclimatic conditions including frequent heavy rains ([2]; frequent heavy rains): low-effective; Plant injury ([3]; 1.5 kg/ha a.p.): 21.7%; Weight of 1,000 grains ([3]; 1.5 kg/ha a.p.): 12.0 g; Plant injury ([3]; 3.0 kg/ha a.p.): 16.1%; Weight of 1,000 grains ([3]; 3.0 kg/ha a.p.): 12.4 g; Yield ([3]; in vivo): 9.5 c/ha and 9.3 c/ha
CC(=O)OC(C(Cl)(Cl)Cl)P(=O)(Oc1ccccc1)Oc1ccccc1 (stereo not drawn) [I, O,O-diphenyl-1-acetoxy-2,2,2-trichloroethylphosphonate] | 0.5% | 7.0% | 18.7 g | 17.40 c/ha | 98-100% and 70-97% | 3500 mg/kg | protection of the apple tree from scab [4]: complete protection; period of fungicidal effect as compared to zineb ([2]; compared to zineb): longer period of a fungicidal effect as compared to zineb; protection of cereal crops from rust ([2]; even at a high level of infection): substantially completely protect cereal crops from rust; increase of the grain yield ([2]; high-volume spraying and USVS at 5 to 8 l/ha): up to 24 c/ha; efficiency compared with prior art anti-rust compositions ([2]; including zineb and hydroxycarboxine): superior over the prior art anti-rust fungicidal compositions including zineb and hydroxycarboxine; efficiency of suppressing spores relative to kitacin [5]: about 40 times; superiority over kitacin in respect of activity [5]: about 50 times; Concentration causing 50% death of spores ([5]; 24 hours): 0.69 mg/L; effect on yield of wheat grain (wheat plants; even at 8-times the increase of the dose): does not lower the yield of wheat grain; germination power (wheat plants; [10]): 99.5%; sprouting energy (wheat plants; [10]): 98.5%; LD90 with trusty limits (white mice; Table 14, female mice): 8,200 mg/kg; LD50 at 336 h ([8]; Table 14, female mice, peroral, read-out: LD50 with trusty limits): 3500 mg/kg; LD50 at 336 h ([8]; white mice, peroral administration, read-out: acute toxicity): ~3500 mg/kg
CN(C)C(=S)SSC(=S)N(C)C [TMTD, tetramethylthiuramdisulphide] |  |  |  |  |  |  | sporulation on treated tubers [9]: individual conidia were observed
CCCCCCC(=O)OC(C(Cl)(Cl)Cl)P(=O)(Oc1ccc(-c2ccccc2)cc1)Oc1ccc(-c2ccccc2)cc1 (stereo not drawn) [XLIX] |  |  |  |  | 49% |  | LD50 for white mice (white mice; Table 2, 20160 min): > 1,000 mg/kg
CCCCCCC(=O)OC(C(Cl)(Cl)Cl)P(=O)(Oc1cc(C)cc(C)c1)Oc1cc(C)cc(C)c1 (stereo not drawn) [XXIX] | 0.5% | 9.5% | 14.8 g | 9.75 c/ha | 85% | > 1000 mg/kg | 
CCCCCCC(=O)OC(C(Cl)(Cl)Cl)P(=O)(Oc1ccc(C)cc1)Oc1ccc(C)cc1 (stereo not drawn) [XXI] | 0.5% | 7.5% | 18.2 g | 14.00 c/ha | 97% | > 1000 mg/kg | 
CCCC(=O)OC(C(Cl)(Cl)Cl)P(=O)(Oc1cc(C)cc(C)c1)Oc1cc(C)cc(C)c1 (stereo not drawn) [XXVIII] | 0.5% | 7.0% | 16.6 g | 11.60 c/ha | 73% | > 1000 mg/kg | 
